Source: US11040040B2, “Methods of treating cancer” (Corvus Pharmaceuticals, Inc., priority 2017, dated 2021)

Key:
[1] = Phase 1/1b clinical trial, safety and tolerability (Step 1); assay type: in vivo, human; details: 48 patients treated in Step 1
Description: FIG. 5 is an illustration of an exemplary Phase 1/1B clinical trial design.
Expansion cohorts include renal cell and non-small cell lung cancer
FIG. 12 provides a summary of data regarding treatment-related adverse events.
(§1) Adenosine signaling via A2A receptor (A2AR) on immune cells suppresses anti-tumor immunity and limits the efficacy of immunotherapy, chemotherapy, CAR-T, and vaccines. […] In embodiments, CD73 expression, CD8 infiltration, TREG distribution, and gene expression signatures are evaluated in serial tumor biopsy specimens.

adenosine signaling = assay: Functional inhibition of adenosine signaling in cancer patients; assay type: in vivo, human
Description: as §1

syngeneic tumor models = assay: Syngeneic tumor models in mice, daily treatment; assay type: in vivo; details: multiple syngeneic tumor models
Description: as §1

[2] = test system: non-small cell lung, melanoma, renal, triple negative breast, and other (bladder, prostate, head and neck, colorectal) tumors; assay: Phase 1/1b clinical trial, clinical activity / tumor regression; assay type: in vivo, human; details: single agent
Description: The waterfall plot includes all subjects from the clinical trial with available data, including all dosing levels and disease indications. CT scans of target lesions were performed prior to treatment and every 8 weeks post-treatment or at optimal time points. Target lesions were measured and the sum of longest dimensions (SLD) calculated. Subjects with regression of target tumor lesions are enriched for CD8 infiltration of tumors at baseline. […] The best change in SLD for each subject is shown in the waterfall plot colored by the percentage of CD8 infiltration in the center of the pre-treatment biopsy sample as measured by immunohistochemistry. […] A cutoff of 1% (rather than 4% for FIG. 1A) was used to classify subjects enriched for CD8 infiltration.
There were five prior regimens including TKIs, mTOR inhibitor and nivolumab. The patient ultimately failed each prior therapy.
as §1

[3] = test system: peripheral T cell receptor repertoire; assay: Deep sequencing of TCRb in PBMCs, Morisita Index and clonality; assay type: in vivo, human; details: subjects with baseline peripheral blood clonality within normal healthy range (<0.2); PBMCs day 0 vs day 28 to 56
Description: FIGS. 3A-3C: Peripheral blood mononuclear cells (PBMCs) were collected at day 0 and between day 28 and 56. Deep sequencing of TCRb and Moristia and clonality calculations were performed by Adaptive Biotechnologies (Seattle, Wash., USA). T cell receptor (TCR) repertoire clonality was assessed.
Clonality is a measure of the dominance of specific T cell clones within a sample. It can range from 0-1, with 0 meaning each clone appears only once and 1 meaning the sample has only copies of a single clone. […] Clonality<0.2 is within the normal range, >0.2 means that a few clones dominate the sample. Clonality is conceptually the opposite of diversity. A clonality<0.2 is diverse because there a lot of different clones and the sample is not dominated by one or a few clone.
A Morisita Index score indicates the similarity between two samples. […] The Morisita Index can range from 0-1, with 0 meaning the samples are completely different (no shared clones) and a score of 1 meaning the samples are the same. In embodiments, a Morisita Index score>0.9 means very little change (e.g., within the range of sample to sample variation), while a Morisita Index score<0.9 means there was a change within the sample.

Compound: Cc1ccc(-c2nc(N)nc3c2nnn3Cc2cccc(COC3CCOC3)n2)o1 (stereo not shown) [CPI-444]
- Grade 3 or 4 treatment related adverse events [1]: 1
- tolerability [1]: well tolerated
- inhibition of adenosine signaling (adenosine signaling): functional inhibition of adenosine signaling
- inhibition of tumor growth (syngeneic tumor models): dose-dependent inhibition of tumor growth
- clinical activity ([2]; including patients who previously failed anti-PD-1 therapy): Evidence of clinical activity
- tumor response (FIG. 6, FIGS. 7A-7B) ([2]; nivolumab refractory renal cancer, five prior regimens including TKIs, mTOR inhibitor and nivolumab): tumor regression
- Morisita Index (change in peripheral TCR repertoire) [3]: < 0.9
